From US20250051277A1, “DELIVERY OF THERAPEUTIC ALKALOID COMPOUNDS” (Sensorium Therapeutics, Inc., priority 2021, published 2025)
Where two headings read alike, the source gives them in different places.

Legend:
[1] = 5 μM
[2] = 5 μM; remark: listed apart in the source
[3] = format: physicochemical; conditions: SGF with pepsin, pH 1.5, 37° C., 0.5 mM
[4] = format: physicochemical; conditions: DI water, 25° C., 0.5 mM
[5] = Plasma Stability Assay of Example A4, human plasma; conditions: 37° C., 10 μM
[6] = Plasma Stability Assay of Example A4, rat plasma; conditions: 37° C., 10 μM
Description: (§1) 50 μL aliquots of positive controls and test compounds spiked into rat or human plasma (n=2) were added to a pre-warmed plate (37° C.) and shaken at 50 rpm. At each respective time point, the reaction was stopped by adding 500 μL of acetonitrile containing internal standards (100 nM aprozolam, 200 nM caffeine, 100 nM tolbutamide). All samples were vortexed for 10 minutes, followed by centrifugation at 3,220 g for 30 minutes to precipitate proteins. 100 μL of the supernatant is transferred to a new plate. The supernatant will be diluted with ultrapure water according to the LC-MS signal response and peak shape.

[7] = Hydrolysis Assay of Example A1 (conversion by LCMS); format: physicochemical; conditions: pH = 2.0, 25° C., 0.5 mM, 0.01M HCl; 0-48 h
Description: The hydrolysis kinetics was under a certain temperature and measured by LCMS at a certain time interval. The corresponding LCMS chromatograms were recorded and the conversions were calculated. The hydrolysis conditions and the data were summarized in below table. LCMS spectra were obtained using Agilent 1200/G1956A or SHIMADZU LCMS-2020. Standard LCMS conditions were as follows (running time 1.55 minutes): • Acidic condition: Mobile Phase A: 0.0375% TFA in water (v/v). Mobile Phase B: 0.01875% TFA in acetonitrile (v/v); Column: Kinetex EVO C18 30*2.1 mm, 5 μm. • Basic condition: Mobile Phase A: 0.025% NH3·H2O in water (v/v). Mobile Phase B: Acetonitrile; Column: Kinetex EVO C18 2.1×30 mm, 5 μm. • Conversion (%)=peak area 1/(peak area 1+peak area 2)*100%, peak area 1 is the integration of hydrolyzed product, peak area 2 is the integration of starting material.

[8] = 10 μM
Description: as §1

[9] = Plasma Stability Assay of Example A3, human plasma; conditions: 5 μM, 37° C., % of prodrug compound remaining
[10] = Plasma Stability Assay of Example A3, mouse plasma; conditions: 5 μM, 37° C., % of prodrug compound remaining
[11] = 10 μM; remark: listed apart in the source

COc1ccc([C@@]23CCC(=NNC(=O)Nc4ccc(C(=O)O)cc4)C[C@@H]2N(C)CC3)cc1OC (racemic) [Compound 259, 4-[[[(3aS,7aS)-3a-(3,4-dimethoxyphenyl)-1-methyl-2,3,4,5,7,7a-hexahydroindol-6-ylidene]amino]carbamoylamino]benzoic acid]
Mouse Plasma Prodrug (%) ([1]; 0 min): 100% | Mouse Plasma Prodrug (%) ([1]; 15 min): 86.2% | Mouse Plasma Prodrug (%) ([1]; 30 min): 81.0% | Mouse Plasma Prodrug (%) ([1]; 60 min): 67.6% | Mouse Plasma Prodrug (%) ([1]; 120 min): 38.7% | Mouse Plasma Prodrug (%) ([1]; 240 min): 19.8% | Human Plasma Prodrug (%) ([2]; 0 min): 100% | Human Plasma Prodrug (%) ([2]; 15 min): >99% | Human Plasma Prodrug (%) ([2]; 30 min): 96.6% | Human Plasma Prodrug (%) ([2]; 60 min): 85.7% | Human Plasma Prodrug (%) ([2]; 120 min): 70.0% | Human Plasma Prodrug (%) ([2]; 240 min): 54.3% | Condition 1 Conversion (%) ([3]; time 1 min): 3.6% | Condition 1 Conversion (%) ([3]; time 5 min): 4.1% | Condition 1 Conversion (%) ([3]; time 30 min): 16.5% | Condition 1 Conversion (%) ([3]; time 1 h): 25% | Condition 1 Conversion (%) ([3]; time 4 h): 29.5% | Condition 1 Conversion (%) ([3]; time 24 h): 31.9% | Condition 2 Conversion (%) ([4]; time 1 min): 0% | Condition 2 Conversion (%) ([4]; time 5 min): 0% | Condition 2 Conversion (%) ([4]; time 30 min): 0% | Condition 2 Conversion (%) ([4]; time 1 h): 2% | Condition 2 Conversion (%) ([4]; time 4 h): 4.3% | Condition 2 Conversion (%) ([4]; time 24 h): 7.8%

COc1ccc([C@@]23CCC(OC(C)=O)=C[C@@H]2N(C)CC3)cc1OC [Compound 026, [(3aS,7aS)-3a-(3,4-dimethoxyphenyl)-1-methyl-3,4,5,7a-tetrahydro-2H-indol-6-yl]acetate]
Compound 001 (%) (metabolite mesembrine), Human Plasma ([5]; time 0.0 min): >99% | Prodrug (%) remaining, Human Plasma ([5]; time 0.0 min): 100.0% | Compound 001 (%) (metabolite mesembrine), Human Plasma ([5]; time 10 min): >99% | Prodrug (%) remaining, Human Plasma ([5]; time 10 min): 40.3% | Compound 001 (%) (metabolite mesembrine), Human Plasma ([5]; time 30 min): >99% | Prodrug (%) remaining, Human Plasma ([5]; time 30 min): 23.5% | Compound 001 (%) (metabolite mesembrine), Human Plasma ([5]; time 60 min): >99% | Prodrug (%) remaining, Human Plasma ([5]; time 60 min): 12.0% | Compound 001 (%) (metabolite mesembrine), Human Plasma ([5]; time 120 min): >99% | Prodrug (%) remaining, Human Plasma ([5]; time 120 min): 3.4% | Compound 001 (%) (metabolite mesembrine), Human Plasma ([5]; time 240 min): >99% | Prodrug (%) remaining, Human Plasma ([5]; time 240 min): 0.8% | Compound 001 (%) (metabolite mesembrine), Rat Plasma ([6]; time 0.0 min): 96.2% | Prodrug (%) remaining, Rat Plasma ([6]; time 0.0 min): 100.0% | Compound 001 (%) (metabolite mesembrine), Rat Plasma ([6]; time 10 min): >99% | Prodrug (%) remaining, Rat Plasma ([6]; time 10 min): 0.0% | Compound 001 (%) (metabolite mesembrine), Rat Plasma ([6]; time 30 min): >99% | Prodrug (%) remaining, Rat Plasma ([6]; time 30 min): 0.0% | Compound 001 (%) (metabolite mesembrine), Rat Plasma ([6]; time 60 min): >99% | Prodrug (%) remaining, Rat Plasma ([6]; time 60 min): 0.0% | Compound 001 (%) (metabolite mesembrine), Rat Plasma ([6]; time 120 min): >99% | Prodrug (%) remaining, Rat Plasma ([6]; time 120 min): 0.0% | Compound 001 (%) (metabolite mesembrine), Rat Plasma ([6]; time 240 min): >99% | Prodrug (%) remaining, Rat Plasma ([6]; time 240 min): 0.0% | Conversion (%) [7]: 0% | Notes (hydrolysis) [7]: Stable; | Condition 1 Conversion (%) ([3]; time 1 min): 0% | Condition 1 Conversion (%) ([3]; time 5 min): 0% | Condition 1 Conversion (%) ([3]; time 30 min): 0% | Condition 1 Conversion (%) ([3]; time 1 h): 0% | Condition 1 Conversion (%) ([3]; time 4 h): 0% | Condition 1 Conversion (%) ([3]; time 24 h): 0% | Condition 2 Conversion (%) ([4]; time 1 min): 0% | Condition 2 Conversion (%) ([4]; time 5 min): 0% | Condition 2 Conversion (%) ([4]; time 30 min): 0% | Condition 2 Conversion (%) ([4]; time 1 h): 0% | Condition 2 Conversion (%) ([4]; time 4 h): 0% | Condition 2 Conversion (%) ([4]; time 24 h): 0%

COc1ccc([C@@]23CCC(OC(=O)c4ccccc4C)=C[C@@H]2N(C)CC3)cc1OC [Compound 298, [(3aS,7aS)-3a-(3,4-dimethoxyphenyl)-1-methyl-3,4,5,7a-tetrahydro-2H-indol-6-yl]2-methylbenzoate]
Mouse Plasma Compound 001 (%) ([1]; 15 min): 34.0% | Mouse Plasma Compound 001 (%) ([1]; 30 min): 44.5% | Mouse Plasma Compound 001 (%) ([1]; 60 min): 60.1% | Mouse Plasma Compound 001 (%) ([1]; 120 min): 64.3% | Mouse Plasma Compound 001 (%) ([1]; 240 min): 64.8% | Human Plasma Prodrug (%) ([2]; 0 min): 100.0% | Human Plasma Prodrug (%) ([2]; 15 min): >99% | Human Plasma Prodrug (%) ([2]; 60 min): 97.5% | Human Plasma Prodrug (%) ([2]; 240 min): 90.9% | Condition 1 Conversion (%) ([3]; time 1 min): 0% | Condition 1 Conversion (%) ([3]; time 5 min): 0% | Condition 1 Conversion (%) ([3]; time 30 min): 0% | Condition 1 Conversion (%) ([3]; time 1 h): 0% | Condition 1 Conversion (%) ([3]; time 4 h): 0% | Condition 1 Conversion (%) ([3]; time 24 h): 0% | Condition 2 Conversion (%) ([4]; time 1 min): 0% | Condition 2 Conversion (%) ([4]; time 5 min): 0% | Condition 2 Conversion (%) ([4]; time 30 min): 0% | Condition 2 Conversion (%) ([4]; time 1 h): 0% | Condition 2 Conversion (%) ([4]; time 4 h): 0% | Condition 2 Conversion (%) ([4]; time 24 h): 0%

COc1ccc([C@@]23CCC(OC(=O)c4ccc(C(C)C)cc4)=C[C@@H]2N(C)CC3)cc1OC [Compound 371, (3aS,7aS)-3a-(3,4-dimethoxyphenyl)-1-methyl-2,3,3a,4,5,7a-hexahydro-1H-indol-6-yl4-isopropylbenzoate]
Mouse Plasma Compound 001 (%) ([1]; 0 min): 28.4% | Mouse Plasma Compound 001 (%) ([1]; 15 min): 31.54% | Mouse Plasma Compound 001 (%) ([1]; 30 min): 29.63% | Mouse Plasma Compound 001 (%) ([1]; 60 min): 30.25% | Mouse Plasma Compound 001 (%) ([1]; 120 min): 26.59% | Mouse Plasma Compound 001 (%) ([1]; 240 min): 19.82% | Prodrug (%) remaining, Rat Plasma ([8]; 0 h): 100.0% | Prodrug (%) remaining, Rat Plasma ([8]; 10 min): 5.0% | Prodrug (%) remaining, Rat Plasma ([8]; 0.5 h): 0.2% | Prodrug (%) remaining, Rat Plasma ([8]; 1 h): 0.1% | Prodrug (%) remaining, Rat Plasma ([8]; 2 h): 0.0% | Prodrug (%) remaining, Rat Plasma ([8]; 4 h): 0.0% | Human Plasma Compound 001 (%) ([2]; 0 min): 0.00% | Human Plasma Compound 001 (%) ([2]; 60 min): 2.67% | Human Plasma Compound 001 (%) ([2]; 120 min): 5.08% | Human Plasma Compound 001 (%) ([2]; 240 min): 3.85% | Human Plasma Prodrug (%) ([9]; 0 min): 100% | Human Plasma Prodrug (%) ([9]; 15 min): 99% | Human Plasma Prodrug (%) ([9]; 30 min): 92% | Human Plasma Prodrug (%) ([9]; 60 min): 87% | Human Plasma Prodrug (%) ([9]; 120 min): 78% | Human Plasma Prodrug (%) ([9]; 240 min): 27% | Mouse Plasma Prodrug (%) ([10]; 0 min): 100% | Mouse Plasma Prodrug (%) ([10]; 15 min): 10% | Mouse Plasma Prodrug (%) ([10]; 30 min): 0% | Mouse Plasma Prodrug (%) ([10]; 60 min): 0% | Mouse Plasma Prodrug (%) ([10]; 120 min): 0% | Mouse Plasma Prodrug (%) ([10]; 240 min): 0% | Prodrug (%) remaining, Human Plasma ([11]; 0 h): 100.0% | Prodrug (%) remaining, Human Plasma ([11]; 10 min): >99% | Prodrug (%) remaining, Human Plasma ([11]; 0.5 h): 94.4% | Prodrug (%) remaining, Human Plasma ([11]; 1 h): 90.7% | Prodrug (%) remaining, Human Plasma ([11]; 2 h): 91.3% | Prodrug (%) remaining, Human Plasma ([11]; 4 h): 78.0%

COc1ccc([C@@]23CCC(OC(=O)c4c(C)cccc4C)=C[C@@H]2N(C)CC3)cc1OC [Compound 372, (3aS,7aS)-3a-(3,4-dimethoxyphenyl)-1-methyl-2,3,3a,4,5,7a-hexahydro-1H-indol-6-yl2,6-dimethylbenzoate]
Mouse Plasma Compound 001 (%) ([1]; 0 min): 0% | Prodrug (%) remaining, Rat Plasma ([8]; 0 h): 100.0% | Prodrug (%) remaining, Rat Plasma ([8]; 10 min): >99% | Prodrug (%) remaining, Rat Plasma ([8]; 0.5 h): >99% | Prodrug (%) remaining, Rat Plasma ([8]; 1 h): >99% | Prodrug (%) remaining, Rat Plasma ([8]; 2 h): 98.4% | Prodrug (%) remaining, Rat Plasma ([8]; 4 h): >99% | Human Plasma Compound 001 (%) ([2]; 0 min): 0.00% | Human Plasma Prodrug (%) ([9]; 0 min): 100% | Human Plasma Prodrug (%) ([9]; 15 min): 97% | Human Plasma Prodrug (%) ([9]; 30 min): 99% | Human Plasma Prodrug (%) ([9]; 60 min): 94% | Human Plasma Prodrug (%) ([9]; 120 min): 81% | Human Plasma Prodrug (%) ([9]; 240 min): 38% | Mouse Plasma Prodrug (%) ([10]; 0 min): 100% | Mouse Plasma Prodrug (%) ([10]; 15 min): 92% | Mouse Plasma Prodrug (%) ([10]; 30 min): 91% | Mouse Plasma Prodrug (%) ([10]; 60 min): 88% | Mouse Plasma Prodrug (%) ([10]; 120 min): 73% | Mouse Plasma Prodrug (%) ([10]; 240 min): 64% | Prodrug (%) remaining, Human Plasma ([11]; 0 h): 100.0% | Prodrug (%) remaining, Human Plasma ([11]; 10 min): >99% | Prodrug (%) remaining, Human Plasma ([11]; 0.5 h): >99% | Prodrug (%) remaining, Human Plasma ([11]; 1 h): >99% | Prodrug (%) remaining, Human Plasma ([11]; 2 h): >99% | Prodrug (%) remaining, Human Plasma ([11]; 4 h): >99%
